Activity calls are given as the source filed them. The rule behind the calls is not given here.

This data set deals with CCRIS mutagenicity, Ames/micronucleus/aberration tests. The data set is described as follows: CCRIS mutagenicity studies.
Where [1] appears, read: Test System: AMES SALMONELLA TYPHIMURIUM, Strain/Indicator: TA98(NR), Metabolic Activation: NONE, Method: STANDARD PLATE.
Where [2] appears, read: Test System: AMES SALMONELLA TYPHIMURIUM, Strain/Indicator: TA98, Metabolic Activation: NONE, Method: PREINCUBATION
[3] abbreviates: Test System: AMES SALMONELLA TYPHIMURIUM, Strain/Indicator: TA98, Metabolic Activation: NONE, Method: STANDARD PLATE.
The mark [4] stands for this setting: Test System: AMES SALMONELLA TYPHIMURIUM, Strain/Indicator: TA100, Metabolic Activation: NONE, Method: STANDARD PLATE.
The mark [5] stands for this setting: Test System: AMES SALMONELLA TYPHIMURIUM, Strain/Indicator: TA100, Metabolic Activation: RAT, LIVER, S-9, AROCLOR 1254, Method: STANDARD PLATE.

`O=[N+]([O-])c1cc2ccccc2c2ccccc12`: the mutagenic call reads like this: (Test System: AMES SALMONELLA TYPHIMURIUM, Strain/Indicator: TA98(1,8-DNP6), Metabolic Activation: NONE, Method: STANDARD PLATE) “active; positive”; under setting [1], “active; positive”; under setting [2], “active; positive”; under setting [3], “active; positive”; (Test System: AMES SALMONELLA TYPHIMURIUM, Strain/Indicator: TA98, Metabolic Activation: RAT, LIVER, S-9, PCB (10%), Method: PREINCUBATION) “inactive; negative”; under setting [4], “active; positive”. Further, the mutagenic call by setting is: (Test System: AMES SALMONELLA TYPHIMURIUM, Strain/Indicator: TA7001, Metabolic Activation: NONE, Method: PREINCUBATION) “active; positive”; (Test System: AMES SALMONELLA TYPHIMURIUM, Strain/Indicator: TA7002, Metabolic Activation: NONE, Method: PREINCUBATION) “active; positive”; (Test System: AMES SALMONELLA TYPHIMURIUM, Strain/Indicator: TA7003, Metabolic Activation: NONE, Method: PREINCUBATION) “inactive; negative”; (Test System: AMES SALMONELLA TYPHIMURIUM, Strain/Indicator: TA7004, Metabolic Activation: NONE, Method: PREINCUBATION) “active; positive”; (Test System: AMES SALMONELLA TYPHIMURIUM, Strain/Indicator: TA7005, Metabolic Activation: NONE, Method: PREINCUBATION) “active; positive”; (Test System: AMES SALMONELLA TYPHIMURIUM, Strain/Indicator: TA7006, Metabolic Activation: NONE, Method: PREINCUBATION) “active; positive”. For the same compound, the mutagenic call was “active; positive” (Test System: AMES SALMONELLA TYPHIMURIUM, Strain/Indicator: YG1021, Metabolic Activation: NONE, Method: STANDARD PLATE); “active; positive” (Test System: AMES SALMONELLA TYPHIMURIUM, Strain/Indicator: YG1024, Metabolic Activation: NONE, Method: STANDARD PLATE); “active; positive” (Test System: AMES SALMONELLA TYPHIMURIUM, Strain/Indicator: YG1026, Metabolic Activation: NONE, Method: STANDARD PLATE); “active; positive” (Test System: AMES SALMONELLA TYPHIMURIUM, Strain/Indicator: YG1029, Metabolic Activation: NONE, Method: STANDARD PLATE).
Regarding `COc1cccc2c1cc1c3c(cc4c(c32)OCO4)C(=O)N1`, the mutagenic call by setting is: (Test System: AMES SALMONELLA TYPHIMURIUM, Strain/Indicator: D3052, Metabolic Activation: NONE, Method: STANDARD PLATE) “inactive; negative”; (Test System: AMES SALMONELLA TYPHIMURIUM, Strain/Indicator: D3052, Metabolic Activation: RAT, LIVER, S-9, PHENOBARBITAL, Method: STANDARD PLATE) “inactive; negative”; (Test System: AMES SALMONELLA TYPHIMURIUM, Strain/Indicator: G46, Metabolic Activation: NONE, Method: STANDARD PLATE) “inactive; negative”; (Test System: AMES SALMONELLA TYPHIMURIUM, Strain/Indicator: G46, Metabolic Activation: RAT, LIVER, S-9, PHENOBARBITAL, Method: STANDARD PLATE) “inactive; negative”; under setting [3], “inactive; negative”; (Test System: AMES SALMONELLA TYPHIMURIUM, Strain/Indicator: TA98, Metabolic Activation: RAT, LIVER, S-9, PHENOBARBITAL, Method: STANDARD PLATE) “inactive; negative”. The mutagenic call reads like this: under setting [4], “inactive; negative”; under setting [5], “active; positive”; (Test System: AMES SALMONELLA TYPHIMURIUM, Strain/Indicator: TA100, Metabolic Activation: RAT, LIVER, S-9, PHENOBARBITAL, Method: STANDARD PLATE) “inactive; negative”; (Test System: AMES SALMONELLA TYPHIMURIUM, Strain/Indicator: TA1535, Metabolic Activation: NONE, Method: STANDARD PLATE) “inactive; negative”; (Test System: AMES SALMONELLA TYPHIMURIUM, Strain/Indicator: TA1535, Metabolic Activation: RAT, LIVER, S-9, PHENOBARBITAL, Method: STANDARD PLATE) “inactive; negative”; (Test System: AMES SALMONELLA TYPHIMURIUM, Strain/Indicator: TA1537, Metabolic Activation: NONE, Method: STANDARD PLATE) “inactive; negative”. In addition, the mutagenic call runs as follows: (Test System: AMES SALMONELLA TYPHIMURIUM, Strain/Indicator: TA1537, Metabolic Activation: RAT, LIVER, S-9, AROCLOR 1254, Method: STANDARD PLATE) “active; positive”; (Test System: AMES SALMONELLA TYPHIMURIUM, Strain/Indicator: TA1978, Metabolic Activation: NONE, Method: STANDARD PLATE) “inactive; negative”; (Test System: AMES SALMONELLA TYPHIMURIUM, Strain/Indicator: TA1978, Metabolic Activation: RAT, LIVER, S-9, PHENOBARBITAL, Method: STANDARD PLATE) “inactive; negative”; (Test System: AMES SALMONELLA TYPHIMURIUM, Strain/Indicator: TM677/8-AZAGUANINE, Metabolic Activation: NONE, Method: SUSPENSION/PLATE) “inactive; negative”.
For the compound `O=[N+]([O-])c1cc2ccc3cccc4ccc(c1O)c2c34`, the mutagenic call under setting [1] is “active; positive”; the mutagenic call under setting [3] was “active; positive”; the mutagenic call (Test System: AMES SALMONELLA TYPHIMURIUM, Strain/Indicator: TA98, Metabolic Activation: RAT, LIVER, S-9, AROCLOR 1254, Method: STANDARD PLATE) was “active; positive”; the mutagenic call under setting [4] is “active; positive”; the mutagenic call under setting [5] is “active; positive”.
Consider `CC(=O)c1ccccc1`, for which the mutagenic call was “inactive; negative” (Test System: AMES SALMONELLA TYPHIMURIUM, Strain/Indicator: TA97, Metabolic Activation: NONE, Method: PREINCUBATION); “inactive; negative” (Test System: AMES SALMONELLA TYPHIMURIUM, Strain/Indicator: TA97, Metabolic Activation: RAT, LIVER, S-9, AROCLOR 1254, Method: PREINCUBATION); “inactive; negative” under setting [2]; “inactive; negative” (Test System: AMES SALMONELLA TYPHIMURIUM, Strain/Indicator: TA98, Metabolic Activation: RAT LIVER S-9, PHENOBARBITAL AND BETA-NAPHTHOFLAVONE, Method: PREINCUBATION); “inactive; negative” (Test System: AMES SALMONELLA TYPHIMURIUM, Strain/Indicator: TA100, Metabolic Activation: NONE, Method: PREINCUBATION); “inactive; negative” (Test System: AMES SALMONELLA TYPHIMURIUM, Strain/Indicator: TA100, Metabolic Activation: RAT LIVER S-9, PHENOBARBITAL AND BETA-NAPHTHOFLAVONE, Method: PREINCUBATION). The mutagenic call runs as follows: (Test System: AMES SALMONELLA TYPHIMURIUM, Strain/Indicator: TA102, Metabolic Activation: NONE, Method: PREINCUBATION) “inactive; negative”; (Test System: AMES SALMONELLA TYPHIMURIUM, Strain/Indicator: TA102, Metabolic Activation: RAT, LIVER, S-9, AROCLOR 1254, Method: PREINCUBATION) “inactive; negative”; (Test System: AMES SALMONELLA TYPHIMURIUM, Strain/Indicator: TA1535, Metabolic Activation: NONE, Method: PREINCUBATION) “inactive; negative”; (Test System: AMES SALMONELLA TYPHIMURIUM, Strain/Indicator: TA1535, Metabolic Activation: RAT LIVER S-9, PHENOBARBITAL AND BETA-NAPHTHOFLAVONE, Method: PREINCUBATION) “inactive; negative”; (Test System: AMES SALMONELLA TYPHIMURIUM, Strain/Indicator: TA1537, Metabolic Activation: NONE, Method: PREINCUBATION) “inactive; negative”; (Test System: AMES SALMONELLA TYPHIMURIUM, Strain/Indicator: TA1537, Metabolic Activation: RAT LIVER S-9, PHENOBARBITAL AND BETA-NAPHTHOFLAVONE, Method: PREINCUBATION) “inactive; negative”. Moreover, the mutagenic call was “inactive; negative” (Test System: E.COLI, Strain/Indicator: WP2UVRA/PKM101, Metabolic Activation: NONE, Method: PREINCUBATION) and “inactive; negative” (Test System: E.COLI, Strain/Indicator: WP2UVRA/PKM101, Metabolic Activation: RAT LIVER S-9, PHENOBARBITAL AND BETA-NAPHTHOFLAVONE, Method: PREINCUBATION).
Consider `Brc1cc(-c2cc(Br)c(Br)c(Br)c2)cc(Br)c1Br`, for which the mutagenic call (Test System: CHINESE HAMSTER V-79, Strain/Indicator: V-79 (HGPRT)/6-THIOGUANINE, Metabolic Activation: NONE) was “inactive; negative”.
Take `CC1(C)CCC[C@]2(C)[C@@H](C=O)C(C=O)=CC[C@@H]12`: the mutagenic call is, setting by setting: under setting [3], “inactive; negative”; under setting [4], “inactive; negative”; (Test System: AMES SALMONELLA TYPHIMURIUM, Strain/Indicator: TA2637, Metabolic Activation: NONE, Method: STANDARD PLATE) “inactive; negative”; (Test System: CHINESE HAMSTER V-79, Strain/Indicator: V-79/6-THIOGUANINE (HGPRT), Metabolic Activation: NONE) “inactive; negative”.

For the origin of these results see PubChem BioAssay AID1259407 (Chemical Carcinogenesis Research Information System (CCRIS), 2018).
